Read-outs that look alike come from different tables or passages of the source.
Experiments:
[1] = tested on: H9c2 (rat cardiomyocytes); test: RoK assay, number of host cells nuclei (drug-related cytotoxicity, H9c2 output, Cmin_Tox); settings: H9c2 host cells
Protocol: For this high-content intracellular imaging assay, H9c2 cells were seeded in 225 cm^2 T- FLASK in DMEM with 10% FBS for 4 h to allow attachment. T. cruzi trypomastigotes, collected at days 5 to 8 after infection from LLC-MK2 parasite infected cultures, were allowed to swim out for 4 h at 37°C from a centrifuged pellet (1,600 x g / 10 min). Trypomastigotes were then collected and counted in a CASY Cell Counter using the 60 μm capillary. […] Cells were washed once with PBS before incubation of the infected H9c2 monolayer with trypsin (Life-Technologies) to detach cells from the flask. Cells were counted in a CASY Cell Counter, using the 150 μm capillary, and their density set at 5 x 10^4 cells/mL in supplemented DMEM. Infected H9c2 were dispensed into 384-well plates at 50 μL per well using a Multidrop Combi dispenser. Control wells used to determine a 100% parasitic growth (full 6th column of each plate) were left untreated, whereas not infected cells were added in the control wells used as 0% parasite growth (or 100% parasite growth inhibition; full 18th column of each plate). The four plates corresponding to each RoK assay were predispensed for the same mother plate. […] Cultures were then fixed and stained with 50 μL per well of a PBS solution containing 4% formaldehyde and 2 μM DRAQ5 DNA dye (BioStatus, UK). Then plates were read in a PerkinElmer Opera Phenix using a 20x objective, 3 fields per well. DRAQ5 signal was detected using 640 nm excitation laser and a 690/50 nm emission detection filter. Automated image analysis was performed with a script developed on Acapella High Content Imaging and Analysis Software (PerkinElmer). Two outputs were provided for each sample well: (1) number of host cells nuclei to determine drug-related cytotoxicity (aka H9c2) and (2) number of amastigotes per cell as infection level measurement (aka AM/CELL). Each output is plotted as a time course for each compound at every concentration. This assay was adapted from Alonso-Padilla et al. and Peña et al..
• ME (Maximum Effect) is the maximum percentage of parasite burden reduction reached by any compound concentration. Compounds that decrease the initial parasite load will show a positive value of ME, whereas compounds that allow the progression of infection will render a negative ME value. […] It is calculated for the MCC50 (t50%_MCC50) and for the maximum concentration (t50%_Cmax). […] The value of this parameter is not either interpolated or extrapolated, and it refers to the first experimental time-course point at which a 50% of effect is reached or exceeded. • tlag defines the time elapsed for one particular concentration to reduce parasite burden between two consecutive points at any moment of the time course. It is calculated for the MCC50 (tlag_MCC50) and for the maximum concentration (tlag_Cmax). The value of this parameter is not either interpolated or extrapolated, and it refers to the first experimental time-course point of a positive slope in the normalised plot (i.e. %Cidal_Response). • Cmin_Tox (Minimal CytoToxic Concentration) is the lowest compound concentration that is reducing the number of host mammalian cells below 50% of initial cell density. Cytotoxic compounds may mislead a bona fide antiparasitic action. Therefore, this descriptor is used to flag this kind of compounds and warn about the genuine meaning of the rest of descriptors.

[2] = tested on: T. cruzi Tulahuen trypomastigotes; test: T. cruzi trypomastigote assay (Cell Titer-Glo viability, ATP luminescence); format: cell-based, Trypanosoma cruzi; settings: for activity in trypomastigotes assay (in words): 48 and 72 hours; for IC50: Trypanosoma cruzi, TULAHUEN; for pIC50 versus trypomastigotes: invariable at the two incubation times tested; for Trypomastigotes pIC50 48 hours: 48 hours incubation; for Trypomastigotes pIC50 48 hours / Trypomastigotes pIC50 72 hours: pIC50 = -log10 IC50 in molar units; for Trypomastigotes pIC50 72 hours: 72 hours incubation
Summary of the method: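 Compounds were tested in dose response or once at a final 5 μM against 5 × 10^4 trypomastigotes per well (DMEM, 2% FBS), collected on days 5–8 from LLC-MK2 infected cultures. ATP luminescence via CellTiter-Glo reports live parasites; DMSO defines 0% and cell-free wells 100% effect.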

[3] = 48 h, read-out: Trypomastigotes pIC50 48 hours (converted)
[4] = 72 h, read-out: Trypomastigotes pIC50 72 hours (converted)
[5] = 72 hours, plotted values, censored values given without sign, read-out: 72 pIC50 (trypomastigotes, raw data of Fig 1D) (converted)
[6] = trypomastigote assay, 48 h, figure 1A, read-out: 48 pIC50 (converted)
[7] = trypomastigote assay, 72 h, figure 1A, read-out: 72 pIC50 (converted)
[8] = trypomastigote assay, 72 h, figure 1B
[9] = 72 hours, plotted values, censored values given without sign
[10] = trypomastigote assay, 48 h, figure 1A
[11] = trypomastigote assay, 72 h, figure 1A

| Compound | Cmin_Tox [1] [µM] | 72 pIC50 [2, 8] | Trypomastigotes pIC50 48 hours [2] | Trypomastigotes pIC50 72 hours [2] | 72 pIC50 (trypomastigotes, raw data of Fig 1D) [2, 9] | 48 pIC50 [2, 10] | 72 pIC50 [2, 11] | other results |
| --- | --- | --- | --- | --- | --- | --- | --- | --- |
| O=C(Cn1ccnc1[N+](=O)[O-])NCc1ccccc1 [Benznidazole, benznidazole, reference compound] | >50 |  |  |  |  |  |  | activity in trypomastigotes assay (in words) [2]: active; IC50 [2, 3]: 6310 nM; IC50 [2, 4]: 5010 nM; pIC50 versus trypomastigotes [2]: 5.3 |
| CC1CS(=O)(=O)CCN1/N=C/c1ccc([N+](=O)[O-])o1 (centres unmarked) [Nifurtimox, nifurtimox, reference compound] | >50 |  |  |  |  |  |  | activity in trypomastigotes assay (in words) [2]: active; IC50 [2, 3]: 1260 nM; IC50 [2, 4]: 1260 nM; IC50 [2, 5]: 1260 nM; IC50 [2, 6]: 1260 nM; IC50 [2, 7]: 1260 nM; pIC50 versus trypomastigotes [2]: 5.9 |
| CC[C@@H]([C@H](C)O)n1ncn(-c2ccc(N3CCN(c4ccc(OC[C@@H]5CO[C@@](Cn6cncn6)(c6ccc(F)cc6F)C5)cc4)CC3)cc2)c1=O [Posaconazole, reference compound] | 42.2 | < 4.3 |  |  |  |  |  | activity in trypomastigotes assay (in words) [2]: inactive; IC50 [2, 3]: > 50100 nM; IC50 [2, 4]: > 50100 nM; IC50 [2, 5]: > 50100 nM; IC50 [2, 6]: > 50100 nM; IC50 [2, 7]: > 50100 nM |
| Cc1sc(C)c(C(F)(F)F)c1CNCCCNc1cc(=O)c2ccccc2[nH]1.Cl [TCMDC-140766] | 50.0 |  | 4.9 | 5.3 |  |  |  |  |
| CC(C)N(C(=O)CN1C(=O)C(N)C(=O)N(c2ccccc2)c2ccccc21)c1ccccc1 (centres unmarked) [TCMDC-143071] | >50 | < 4.3 | < 4.3 | < 4.3 | < 4.3 | < 4.3 | < 4.3 |  |
| O=c1[nH]cnc2c([C@@H]3O[C@H](CO)[C@@H](O)[C@H]3O)n[nH]c12 [TCMDC-143083, Formycin B] | >50 |  |  |  |  |  |  | activity versus trypomastigotes at 48 hours (in words) ([2]; 48 hours): inactive; activity versus trypomastigotes at 72 hours (in words) ([2]; 72 hours): active; IC50 [2, 3]: > 50100 nM; IC50 [2, 4]: 2510 nM |
| COc1ccc(CN(C)Cc2ccncc2)cc1-c1ccc(S(=O)(=O)NC2CCC2)s1.O=C(O)C(F)(F)F.O=C(O)C(F)(F)F [TCMDC-143084] | >50 |  | 5 | 4.9 |  |  |  |  |
| CN(C)Cc1ccc(-c2ccc(S(=O)(=O)NCC3CCCO3)c(F)c2)cc1.O=C(O)C(F)(F)F (centres unmarked) [TCMDC-143085] | >50 | < 4.3 | < 4.3 | < 4.3 | < 4.3 | < 4.2 | < 4.3 |  |
| Cc1nc2nc(C)c(Cc3ccc(C(C)C)cc3)c(=O)n2[nH]1 [TCMDC-143087] | >50 |  | 5.8 | 5.9 |  |  |  | activity in trypomastigotes assay (in words) [2]: active versus trypomastigotes at 48 and 72 hours with the same potency |
| COc1cc(C(C)C)c(S(C)(=O)=O)cc1C(=O)N1CCN(c2ccccc2Cl)CC1 [TCMDC-143097] | >50 | < 4.3 | < 4.3 | < 4.3 | < 4.3 | < 4.3 | < 4.3 |  |
| COc1ccc(NS(=O)(=O)c2cccc(NC(=O)c3cc(F)cc(F)c3)c2)cc1 [TCMDC-143108] | >50 |  | 5 | 5.6 |  |  |  |  |
| Cc1cc(N(C)C)nc(Nc2ccccc2C)n1 [TCMDC-143109] | >50 |  | 5.7 | 5.6 |  |  |  |  |
| O=C1CSC(c2cccnc2)N1c1ccc(Cl)cc1Cl (centres unmarked) [TCMDC-143114] | >50 | < 4.3 | < 4.3 | < 4.3 | < 4.3 | < 4.3 | < 4.3 |  |
| CN1CCCN(C(=O)c2ccc(N3CCCC3)cc2Cl)CC1 [TCMDC-143127] | >50 | < 4.3 | < 4.3 | < 4.3 | < 4.3 | < 4.3 | < 4.3 |  |
| COc1ccc(C2CC(c3ccccc3Cl)=NN2C(=O)CNC(=O)C2CCC2)cc1 (centres unmarked) [TCMDC-143130] | >50 |  | 4.6 | 4.7 |  |  |  |  |
| CCC(=O)Nc1ccc(-c2nc3ccc(Cl)cc3[nH]2)cc1 [TCMDC-143135] | >50 |  | 5.3 | 5.4 |  |  |  |  |
| COc1ccc(-c2nc3ncccc3o2)cc1NC(=O)c1cccs1 [TCMDC-143137] | >50 |  | < 4.3 | 5.2 |  |  |  | activity in trypomastigotes assay (in words) [2]: only active in trypomastigote assay at 72 hours |
| Cc1nnnn1-c1cccc(C(=O)N2CCC[C@@]3(C)c4ncncc4CCC23)c1 (some centres unmarked) [TCMDC-143148] | >50 | < 4.3 | < 4.3 | < 4.3 | < 4.3 | < 4.3 | < 4.3 |  |
| Cc1c(C#N)c([N+](=O)[O-])nn1Cc1cccc(Cl)c1Cl [TCMDC-143152] | >50 | 6.1 | 6.1 | 6.1 | 6.1 | 6.1 | 6.1 |  |
| CCOc1ccc(NC(=O)C=Cc2ccc(CC)o2)cc1 [TCMDC-143160] | 50.0 |  | 5.4 | 5 |  |  |  |  |
| COc1ccc(NS(=O)(=O)c2cc(NC(=O)c3ccc([N+](=O)[O-])s3)ccc2OC)cc1 [TCMDC-143163] | >50 |  | 6.9 | 6.6 |  |  |  | activity in trypomastigotes assay (in words) [2]: potent activity |
| NC(=O)c1ccccc1Nc1nc(NC2CCCCC2)nc2[nH]ccc12 [TCMDC-143314] | 1.9 |  | 5.1 | 4.4 |  |  |  |  |
| CCCCn1nnnc1CSc1nc(C)cc(C)c1C#N [TCMDC-143315] | >50 |  | 6.6 | 6.8 |  |  |  |  |
| O=C(CSc1ccc(F)cc1)N[C@@H](Cc1cnc[nH]1)C(=O)NCCc1ccccc1.O=C(O)C(F)(F)F [TCMDC-143317] | >50 | < 4.3 | < 4.3 | < 4.3 | < 4.3 | < 4.3 | < 4.3 |  |
| CCOc1cnn(C)c(=O)c1Nc1ccc(C(=O)NCc2ccc(F)cc2)cc1 [TCMDC-143319] | >50 | < 4.3 | < 4.3 | < 4.3 | < 4.3 | < 4.3 | < 4.3 |  |
